According to the supplement of paper PMC10307832:

Legend:
Test in all cases: relative viability (nuclei count vs DMSO), 5 days (fraction); higher = more cells survive
[1] = compound: C[C@@]1(C(=O)Nc2ccc(F)nc2)CCCN1c1nc(Nc2cc(C3CC3)n[nH]2)c2cccn2n1 + N=C(N)NC(=N)NCCc1ccccc1 [Phenformin] (partner 250 µM)
In short: (§1)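 Lung cancer cell lines in 1536-well plates got either a single drug or a fixed anchor-drug dose together with five library-drug doses (not always all listed) in √10 steps, by pin tool, on the day after seeding. Nuclei were counted after 5 days, and relative viability is the treated-to-vehicle ratio of nuclei counts. Values are medians of duplicate plates.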

[2] = compound: CC1(C)CNc2cc(NC(=O)c3cccnc3NCc3ccncc3)ccc21 [Motesanib] + Cc1cc(Nc2cc(N3CCN(C)CC3)nc(Sc3ccc(NC(=O)C4CC4)cc3)n2)n[nH]1 [Tozasertib] (partner 0.1 µM)
In short: as §1

[3] = compound: CC1(C)CNc2cc(NC(=O)c3cccnc3NCc3ccncc3)ccc21 [Motesanib] + NC(=O)Nc1cc(-c2cccc(F)c2)sc1C(=O)N[C@H]1CCCNC1 [AZD7762] (partner 0.2 µM)
In short: as §1

[4] = compound: CC1(C)CNc2cc(NC(=O)c3cccnc3NCc3ccncc3)ccc21 [Motesanib] + Nc1nc2[nH]cc(CCc3ccc(C(=O)N[C@@H](CCC(=O)O)C(=O)O)cc3)c2c(=O)[nH]1 [Pemetrexed] (partner 0.2 µM)
In short: as §1

Cell Line | relative viability ([1]; first compound 0.04 µM) | relative viability ([1]; first compound 0.1265 µM) | relative viability ([1]; first compound 0.4 µM) | relative viability ([1]; first compound 1.265 µM) | relative viability ([2]; first compound 0.01 µM) | relative viability ([2]; first compound 0.03162 µM) | relative viability ([2]; first compound 0.1 µM) | relative viability ([2]; first compound 0.3162 µM) | relative viability ([2]; first compound 1 µM) | relative viability ([3]; first compound 0.01 µM) | relative viability ([3]; first compound 0.03162 µM) | relative viability ([3]; first compound 0.1 µM) | relative viability ([3]; first compound 0.3162 µM) | relative viability ([3]; first compound 1 µM) | relative viability ([4]; first compound 0.01 µM) | relative viability ([4]; first compound 0.03162 µM) | relative viability ([4]; first compound 0.1 µM) | relative viability ([4]; first compound 0.3162 µM) | relative viability ([4]; first compound 1 µM)
NCI-H727 | 0.402 | 0.247 | 0.266 | 0.322 | 0.603 | 0.574 | 0.638 | 0.645 | 0.577 | 0.547 | 0.56 | 0.856 | 0.488 | 0.58 | – | – | – | – | –
NCI-H1563 | 0.64 | 0.671 | 0.605 | 0.626 | – | – | – | – | – | – | – | – | – | – | 0.679 | 0.82 | 0.871 | 0.644 | 0.794
NCI-H1623 | 0.563 | 0.462 | 0.449 | 0.477 | 0.414 | 0.426 | 0.457 | 0.425 | 0.475 | – | – | – | – | – | – | – | – | – | –
NCI-H1648 | – | – | – | – | 0.307 | 0.367 | 0.281 | 0.528 | 0.345 | 0.496 | – | – | 0.702 | 0.597 | 0.707 | – | – | 0.674 | 0.547
NCI-H1650 | 0.411 | 0.387 | 0.376 | 0.193 | 0.467 | 0.381 | 0.438 | 0.491 | 0.439 | – | – | – | – | – | 0.357 | 0.367 | 0.33 | 0.349 | 0.425
NCI-H1703 | – | – | – | – | – | – | – | – | – | – | 0.127 | 0.139 | 0.13 | 0.13 | – | – | – | – | –
NCI-H1792 | 0.145 | 0.0792 | 0.208 | 0.189 | – | – | – | – | – | 0.621 | 0.706 | 0.92 | 0.635 | 0.71 | 0.778 | 0.859 | 0.791 | 0.785 | 0.711
NCI-H2009 | 0.539 | 0.493 | 0.479 | 0.481 | 0.731 | 0.705 | 0.747 | 0.691 | 0.721 | – | – | – | – | – | 0.949 | 1.02 | 1.01 | 1.06 | 0.973
NCI-H2023 | 0.354 | 0.271 | 0.294 | 0.189 | 0.379 | 0.309 | 0.346 | 0.325 | 0.286 | – | – | – | – | – | 0.224 | 0.201 | 0.245 | 0.217 | 0.263
NCI-H2228 | 0.223 | 0.196 | 0.171 | 0.232 | 0.355 | 0.184 | 0.289 | 0.272 | 0.251 | – | – | – | – | – | 0.366 | 0.292 | 0.254 | 0.191 | 0.241
SK-LU-1 | 0.476 | 0.396 | 0.361 | 0.409 | 0.325 | 0.298 | 0.352 | 0.327 | 0.263 | – | – | – | – | – | 0.961 | 0.806 | 0.547 | 0.417 | 0.347
SK-MES-1 | 0.699 | 0.632 | 0.559 | 0.635 | 0.822 | 0.91 | 0.958 | 0.935 | 0.922 | – | – | – | – | – | 0.912 | 0.953 | 1.03 | 0.943 | 1.02
SW 1573 | 0.232 | 0.218 | 0.228 | 0.214 | 0.144 | 0.145 | 0.187 | 0.222 | 0.177 | – | – | – | – | – | 0.764 | 0.833 | 0.864 | 0.882 | 0.854
